ChEMBL document CHEMBL1201862, “PubChem BioAssay data set” (2004)
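Method: 48-hour compound exposure of cells in 96-well plates, five concentrations, linear interpolation of endpoints. At the GI50, growth is halved.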 The source made the active and inactive calls. No stated cut-off is given here; in the data, active = GI50 up to about 1.1 µM and inactive = higher.

Legend:
Test in all cases: DTP human tumour cell line panel, 48 h
RPMI-8226 = test system: RPMI-8226
UACC-257 = test system: UACC-257
MDA-MB-231 = test system: MDA-MB-231
HL-60 = test system: HL-60
SF-295 = test system: SF-295
HOP-62 = test system: HOP-62
MDA-MB-435 = test system: MDA-MB-435
HOP-92 = test system: HOP-92
OVCAR-5 = test system: OVCAR-5
SK-OV-3 = test system: SK-OV-3
T47D = test system: T47D
NCI-H23 = test system: NCI-H23
Malme-3M = test system: Malme-3M
CAKI-1 = test system: CAKI-1
DU-145 = test system: DU-145
A498 = test system: A498
OVCAR-8 = test system: OVCAR-8
HCT-116 = test system: HCT-116
OVCAR-3 = test system: OVCAR-3
SW-620 = test system: SW-620

Measured: GI50

CN1C(=O)N(C)C2(CCN(CC(CC3OCCO3)c3ccc(F)cc3)CC2)C1=O (centres undefined)
inactive: RPMI-8226 > 100 µM | UACC-257 > 100 µM | MDA-MB-231 > 100 µM | HL-60 > 100 µM | SF-295 > 100 µM | HOP-62 > 100 µM | MDA-MB-435 > 100 µM | HOP-92 > 100 µM | OVCAR-5 > 100 µM | SK-OV-3 > 100 µM | T47D > 100 µM | NCI-H23 > 100 µM | Malme-3M > 100 µM | CAKI-1 > 100 µM | DU-145 > 100 µM | A498 > 100 µM | OVCAR-8 > 100 µM | HCT-116 > 100 µM | OVCAR-3 > 100 µM

N#Cc1c(N2CCCC2)ncn(-c2ccccc2)c1=S
inactive: RPMI-8226 > 100 µM | UACC-257 > 100 µM | MDA-MB-231 > 100 µM | HL-60 > 100 µM | SW-620 > 100 µM | SF-295 > 100 µM | HOP-62 > 100 µM | MDA-MB-435 > 100 µM | HOP-92 > 100 µM | OVCAR-5 > 100 µM | SK-OV-3 > 100 µM | T47D > 100 µM | NCI-H23 > 100 µM | Malme-3M > 100 µM | CAKI-1 > 100 µM | DU-145 > 100 µM | A498 > 100 µM | OVCAR-8 > 100 µM | HCT-116 > 100 µM | OVCAR-3 > 100 µM

COC1C(=O)N(SC)C1c1ccccc1Cl (centres undefined)
inactive: RPMI-8226 19.6 µM | UACC-257 > 100 µM | MDA-MB-231 35.6 µM | HL-60 16.7 µM | SW-620 21.4 µM | SF-295 > 100 µM | HOP-62 > 100 µM | MDA-MB-435 21.3 µM | HOP-92 36.1 µM | OVCAR-5 17.8 µM | SK-OV-3 > 100 µM | T47D 27.4 µM | NCI-H23 > 100 µM | Malme-3M 22.6 µM | CAKI-1 80.5 µM | DU-145 > 100 µM | A498 > 100 µM | OVCAR-8 19.6 µM | HCT-116 11.3 µM | OVCAR-3 19.6 µM
